Data taken from patent US20230077362A1 (CORTEVA AGRISCIENCE LLC, priority 2019, published 2023).
Like-named read-outs stand apart in the source and are kept apart here.

Experiments:
Format in all cases: in vivo
[1] = tested on: Beet Armyworm (Spodoptera exigua) ("BAW"), second instar larvae; test: Bioassay on beet armyworm (BAW), 128-well diet tray assay; conditions: for pest or weed control at 50 µg/cm2: Spodoptera exigua; for BAW rating: Table ABC, species BAW, C = not tested, D = no activity noticed
In short: (§1)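 Each value represents average percent mortality from eight wells. Larvae were kept in clear-covered trays at 25° C. for five to seven days on a 14-hour light, 10-hour dark schedule before scoring.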

[2] = tested on: Cabbage Looper (Trichoplusia ni) ("CL"), second instar larvae; test: Bioassay on cabbage looper (CL), 128-well diet tray assay; conditions: for pest or weed control at 50 µg/cm2: Trichoplusia ni; for CL rating: Table ABC, species CL, C = not tested, D = no activity noticed
In short: as §1

[3] = tested on: Green Peach Aphid ("GPA") (Myzus persicae), wingless adult and nymph stages; test: Bioassay on green peach aphid (GPA), foliar spray on infested cabbage seedlings; conditions: for pest or weed control at 200 µg/mL: Myzus persicae, foliar, 72 h
Experimental: Certain molecules disclosed in this document were tested against GPA using procedures described in the following example. In the reporting of the results, the “GPA Rating Table” was used (See Table Section).
Cabbage seedlings grown in 3-inch pots, with 2-3 small (3-5 cm) true leaves, were used as test substrate. The seedlings were infested with 20-50 GPA (wingless adult and nymph stages) one day prior to chemical application. Four pots with individual seedlings were used for each treatment. Test compounds (2 mg) were dissolved in 2 mL of acetone/methanol (1:1) solvent, forming stock solutions of 1000 ppm test compound. […] A hand-held aspirator-type sprayer was used for spraying a solution to both sides of […] leaves until runoff. Reference plants (solvent check) were sprayed with the diluent only containing 20% by volume of acetone/methanol (1:1) solvent. Treated plants were held in a holding room for three days at approximately 25° C. and ambient relative humidity (RH) prior to grading. Evaluation was conducted by counting the number of live aphids per plant under a microscope.
Corrected % Control=100*(X−Y)/X • where • X=No. of live aphids on solvent check plants and • Y=No. of live aphids on treated plants
The results are indicated in the table entitled “Table ABC: Biological Results” (See Table Section).

[4] = read-out: BAW (Biological Results, rating)
[5] = read-out: CL (Biological Results, rating)
[6] = read-out: GPA (Biological Results, rating)

SMILES: Cc1ccc(COCC(F)(F)F)c(N2C(=O)CS/C2=N\C(=O)Nc2ccc(-c3ncn(-c4ccc(C(F)F)cc4)n3)cc2C)c1 [Compound J684, (Z)-1-(4-(1-(4-(Difluoromethyl)phenyl)-1H-1,2,4-triazol-3-yl)-2-methylphenyl)-3-(3-(5-methyl-2-((2,2,2-trifluoroethoxy)methyl)phenyl)-4-oxothiazolidin-2-ylidene)urea]
- pest or weed control at 50 µg/cm2 ([1]; read-out: BAW rating): 50 to 100%
- pest or weed control at 50 µg/cm2 ([2]; read-out: CL rating): 50 to 100%
- pest or weed control at 200 µg/mL ([3]; read-out: GPA rating): 0 to 80%

SMILES: CC(C)c1ccc(N(C)C)cc1N1C(=O)CS/C1=N\C(=O)Nc1ccc(-c2ncn(-c3ccc(SC(F)(F)F)cc3)n2)cc1 [Compound J368, (Z)-1-(3-(5-(Dimethylamino)-2-isopropylphenyl)-4-oxothiazolidin-2-ylidene)-3-(4-(1-(4-((trifluoromethyl)thio)phenyl)-1H-1,2,4-triazol-3-yl)phenyl)urea]
- pest or weed control at 50 µg/cm2 ([1]; read-out: BAW rating): 50 to 100%
- pest or weed control at 50 µg/cm2 ([2]; read-out: CL rating): 50 to 100%
- pest or weed control at 200 µg/mL ([3]; read-out: GPA rating): 0 to 80%

SMILES: Cc1ccc(C(C)C)c(N2C(=O)CS/C2=N\C(=O)Nc2ccc(-c3ncn(-c4ccc(OC(F)(F)F)cc4)n3)cc2F)c1 [Compound J19, (Z)-1-(2-Fluoro-4-(1-(4-(trifluoromethoxy)phenyl)-1H-1,2,4-triazol-3-yl)phenyl)-3-(3-(2-isopropyl-5-methylphenyl)-4-oxothiazolidin-2-ylidene)urea]
- pest or weed control at 50 µg/cm2 [1, 4]: 50 to 100%
- pest or weed control at 50 µg/cm2 [2, 5]: 50 to 100%
- pest or weed control at 200 µg/mL [3, 6]: 0 to 80%

SMILES: COC(C)c1ccc(C)cc1N1C(=O)CS/C1=N\C(=O)Nc1ccc(-c2ncn(-c3ccc(SC(F)(F)F)cc3)n2)cc1 (stereo not shown) [Compound J350, (Z)-1-(3-(2-(1-methoxyethyl)-5-methylphenyl)-4-oxothiazolidin-2-ylidene)-3-(4-(1-(4-((trifluoromethyl)thio)phenyl)-1H-1,2,4-triazol-3-yl)phenyl)urea]
- pest or weed control at 50 µg/cm2 [1, 4]: 50 to 100%
- pest or weed control at 50 µg/cm2 [2, 5]: 50 to 100%
- pest or weed control at 200 µg/mL [3, 6]: 0 to 80%

SMILES: COCc1ccc(C)cc1N1C(=O)CS/C1=N\C(=O)Nc1ccc(-c2ncn(-c3ccc(OC(F)(F)F)cc3)n2)cc1F [Compound J66, (Z)-1-(2-Fluoro-4-(1-(4-(trifluoromethoxy)phenyl)-1H-1,2,4-triazol-3-yl)phenyl)-3-(3-(2-(methoxymethyl)-5-methylphenyl)-4-oxothiazolidin-2-ylidene)urea]
- pest or weed control at 50 µg/cm2 [1, 4]: 50 to 100%
- pest or weed control at 50 µg/cm2 [2, 5]: 50 to 100%
- pest or weed control at 200 µg/mL [3, 6]: 0 to 80%

SMILES: CCOc1ccc(C(C)C)c(N2C(=O)CS/C2=N\C(=O)Nc2ccc(-c3ncn(-c4ccc(OC(F)(F)F)cc4)n3)cc2F)c1 [Compound J191, (Z)-1-(3-(5-Ethoxy-2-isopropylphenyl)-4-oxothiazolidin-2-ylidene)-3-(2-fluoro-4-(1-(4-(trifluoromethoxy)phenyl)-1H-1,2,4-triazol-3-yl)phenyl)urea]
- pest or weed control at 200 µg/mL [3, 6]: 0 to 80%

SMILES: CCCc1ccc(C)cc1N1C(=O)CS/C1=N\C(=O)Nc1ccc(-c2ncn(-c3ccc(OC(F)(F)F)cc3)n2)cc1F [Compound J41, (Z)-1-(2-Fluoro-4-(1-(4-(trifluoromethoxy)phenyl)-1H-1,2,4-triazol-3-yl)phenyl)-3-(3-(5-methyl-2-propylphenyl)-4-oxothiazolidin-2-ylidene)urea]
- pest or weed control at 200 µg/mL [3, 6]: 0 to 80%

SMILES: CC(C)c1ccc(C#N)cc1N1C(=O)CS/C1=N\C(=O)Nc1ccc(-c2ncn(-c3ccc(OC(F)(F)F)cc3)n2)cc1F [Compound J76, (Z)-1-(3-(5-Cyano-2-isopropylphenyl)-4-oxothiazolidin-2-ylidene)-3-(2-fluoro-4-(1-(4-(trifluoromethoxy)phenyl)-1H-1,2,4-triazol-3-yl)phenyl)urea]
- pest or weed control at 200 µg/mL [3, 6]: 0 to 80%

SMILES: Cc1ccc(-c2ccccc2)c(N2C(=O)CS/C2=N\C(=O)Nc2ccc(-c3ncn(-c4ccc(OC(F)(F)F)cc4)n3)cc2F)c1 [Compound J785, (Z)-1-(2-Fluoro-4-(1-(4-(trifluoromethoxy)phenyl)-1H-1,2,4-triazol-3-yl)phenyl)-3-(3-(4-methyl-[1,1′-biphenyl]-2-yl)-4-oxothiazolidin-2-ylidene)urea]
- GPA rating (% control or mortality class) ([3]; Table ABC, species GPA, foliar spray on infested cabbage seedlings): D (No activity noticed in this bioassay)

SMILES: CCCCc1ccc(OC)cc1N1C(=O)CS/C1=N\C(=O)Nc1ccc(-c2ncn(-c3ccc(OC(F)(F)F)cc3)n2)cc1F [Compound J45, (Z)-1-(3-(2-Butyl-5-methoxyphenyl)-4-oxothiazolidin-2-ylidene)-3-(2-fluoro-4-(1-(4-(trifluoromethoxy)phenyl)-1H-1,2,4-triazol-3-yl)phenyl)urea]
- pest or weed control at 50 µg/cm2 [1, 4]: 50 to 100%
- pest or weed control at 50 µg/cm2 [2, 5]: 50 to 100%

SMILES: Cc1ccc(COCC(C)(F)F)c(N2C(=O)CS/C2=N\C(=O)Nc2ccc(-c3ncn(-c4ccc(OC(F)(F)F)cc4)n3)cc2F)c1 [Compound J535]
- BAW rating [1]: A (50-100)
- CL rating [2]: A (50-100)

SMILES: CC(=O)c1cc(-c2ncn(-c3ccc(OC(F)(F)F)cc3)n2)ccc1NC(=O)/N=C1\SCC(=O)N1c1cc(C)ccc1COCC(F)(F)F [Compound J398, (Z)-1-(2-Acetyl-4-(1-(4-(trifluoromethoxy)phenyl)-1H-1,2,4-triazol-3-yl)phenyl)-3-(3-(5-methyl-2-((2,2,2-trifluoroethoxy)methyl)phenyl)-4-oxothiazolidin-2-ylidene)urea]
- pest or weed control at 50 µg/cm2 ([1]; read-out: BAW rating): 50 to 100%
- pest or weed control at 50 µg/cm2 ([2]; read-out: CL rating): 50 to 100%

SMILES: COc1ccc(C(C)C)c(N2C(=O)CS/C2=N\C(=O)Nc2ccc(-c3ncn(-c4ccc(C(F)F)cn4)n3)cc2F)c1 [Compound J355]
- pest or weed control at 50 µg/cm2 [1, 4]: 50 to 100%
- pest or weed control at 50 µg/cm2 [2, 5]: 50 to 100%

SMILES: Cc1ccc(C(C)C)c(N2C(=O)CS/C2=N\C(=O)Nc2ccc(-c3ncn(-c4ccc(OCC(F)(F)F)cc4)n3)cc2F)c1 [Compound J57, (Z)-1-(2-Fluoro-4-(1-(4-(2,2,2-trifluoroethoxy)phenyl)-1H-1,2,4-triazol-3-yl)phenyl)-3-(3-(2-isopropyl-5-methylphenyl)-4-oxothiazolidin-2-ylidene)urea]
- pest or weed control at 50 µg/cm2 [1, 4]: 50 to 100%
- pest or weed control at 50 µg/cm2 [2, 5]: 50 to 100%

SMILES: Cc1ccc(COCC(F)(F)F)c(N2C(=O)CS/C2=N\C(=O)Nc2ccc(-c3ncn(-c4ccc([S+]([O-])C(F)(F)F)cc4)n3)cc2F)c1 (stereo not shown) [Compound J380, (Z)-1-(2-Fluoro-4-(1-(4-((trifluoromethyl)sulfinyl)phenyl)-1H-1,2,4-triazol-3-yl)phenyl)-3-(3-(5-methyl-2-((2,2,2-trifluoroethoxy)methyl)phenyl)-4-oxothiazolidin-2-ylidene)urea]
- pest or weed control at 50 µg/cm2 ([1]; read-out: BAW rating): 50 to 100%
- pest or weed control at 50 µg/cm2 ([2]; read-out: CL rating): 50 to 100%

SMILES: CC(C)c1cc(F)c(N(C)C)cc1N1C(=O)CS/C1=N\C(=O)Nc1ccc(-c2ncn(-c3ccc(OC(F)(F)F)cn3)n2)cc1F [Compound J261, (Z)-1-(3-(5-(Dimethylamino)-4-fluoro-2-isopropylphenyl)-4-oxothiazolidin-2-ylidene)-3-(2-fluoro-4-(1-(5-(trifluoromethoxy)pyridin-2-yl)-1H-1,2,4-triazol-3-yl)phenyl)urea]
- pest or weed control at 50 µg/cm2 [1, 4]: 50 to 100%
- pest or weed control at 50 µg/cm2 [2, 5]: 50 to 100%

SMILES: CCCOCc1ccc(C)cc1N1C(=O)CS/C1=N\C(=O)Nc1ccc(-c2ncn(-c3ccc(OC(F)(F)F)cc3)n2)cc1C [Compound J546]
- BAW rating [1]: A (50-100)
- CL rating [2]: A (50-100)

SMILES: Cc1ccc(C(C)C)c(N2C(=O)CS/C2=N\C(=O)Nc2ccc(-c3cn(-c4ccc(C(F)(F)F)cn4)cn3)cc2C)c1 [Compound J509, (Z)-1-(3-(2-Isopropyl-5-methylphenyl)-4-oxothiazolidin-2-ylidene)-3-(2-methyl-4-(1-(5-(trifluoromethyl)pyridin-2-yl)-1H-imidazol-4-yl)phenyl)urea]
- pest or weed control at 50 µg/cm2 ([1]; read-out: BAW rating): 50 to 100%
- pest or weed control at 50 µg/cm2 ([2]; read-out: CL rating): 50 to 100%

SMILES: Cc1ccc(C(C)C)c(N2C(=O)CS/C2=N\C(=O)Nc2ccc(-c3cn(-c4ccc(C(F)(F)F)cn4)cn3)cc2F)c1 [Compound J482, (Z)-1-(2-Fluoro-4-(1-(5-(trifluoromethyl)pyridin-2-yl)-1H-imidazol-4-yl)phenyl)-3-(3-(2-isopropyl-5-methylphenyl)-4-oxothiazolidin-2-ylidene)urea]
- pest or weed control at 50 µg/cm2 ([1]; read-out: BAW rating): 50 to 100%
- pest or weed control at 50 µg/cm2 ([2]; read-out: CL rating): 50 to 100%

SMILES: CCCc1ccc(N(C)C)cc1N1C(=O)CS/C1=N\C(=O)Nc1ccc(-n2cnc(-c3ccc(OC(F)(F)F)cc3)n2)cc1 [Compound J409, (Z)-1-(3-(5-(Dimethylamino)-2-propylphenyl)-4-oxothiazolidin-2-ylidene)-3-(4-(3-(4-(trifluoromethoxy)phenyl)-1H-1,2,4-triazol-1-yl)phenyl)urea]
- pest or weed control at 50 µg/cm2 ([1]; read-out: BAW rating): 50 to 100%
- pest or weed control at 50 µg/cm2 ([2]; read-out: CL rating): 50 to 100%

SMILES: CCCc1ccc(N(C)C)cc1N1C(=O)CS/C1=N\C(=O)Nc1ccc(-c2ncn(-c3ccc(C(F)(F)F)cn3)n2)cc1F [Compound J282, (Z)-1-(3-(5-(Dimethylamino)-2-propylphenyl)-4-oxothiazolidin-2-ylidene)-3-(2-fluoro-4-(1-(5-(trifluoromethyl)pyridin-2-yl)-1H-1,2,4-triazol-3-yl)phenyl)urea]
- pest or weed control at 50 µg/cm2 [1, 4]: 50 to 100%
- pest or weed control at 50 µg/cm2 [2, 5]: 50 to 100%
